{"source": "PubChem BioAssay AID2060488", "about": "(Molecular Pharmacology Branch, DTP, NCI, 2025)", "tested_on": "966289-007-R4-J1-PDC complex spheroid viability", "test": "Anticancer human tumor 966289-007-R4-J1-PDC patient-derived pancreatic adenocarcinoma cell line growth inhibition [GQUAD]", "details": "for IC50: curve of first compound; for viability, T/C: stronger effect = lower value", "in_short": "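Viability of tumor cells grown as complex spheroids with endothelial and stromal cells, exposed to drug combinations. Top concentration at or near clinical Cmax (else 10 microM), diluted in half-log increments.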", "key": {"[1]": {"details": "second compound 0.0316 µM, first compound 0.0316 µM"}, "[2]": {"details": "second compound 0.0316 µM, first compound 0.316 µM"}, "[3]": {"details": "second compound 0.1 µM, first compound 0.0316 µM"}, "[4]": {"details": "second compound 0.1 µM, first compound 0.316 µM"}, "[5]": {"details": "second compound 0.316 µM, first compound 0.0316 µM"}, "[6]": {"details": "second compound 0.316 µM, first compound 0.316 µM"}, "[7]": {"details": "second compound 1 µM, first compound 0.0316 µM"}, "[8]": {"details": "second compound 1 µM, first compound 0.316 µM"}, "[9]": {"details": "second compound 3.16 µM, first compound 0.0316 µM"}, "[10]": {"details": "second compound 3.16 µM, first compound 0.316 µM"}, "[11]": {"details": "second compound 10 µM, first compound 0.0316 µM"}, "[12]": {"details": "second compound 10 µM, first compound 0.316 µM"}}}
{"compound": "C#Cc1c(F)ccc2cc(O)cc(-c3ncc4c(N5CC6CCC(C5)N6)nc(OCC56CCCN5CC(F)C6)nc4c3F)c12", "note": "(centres undefined) + CN(C)c1ccc(Nc2c3ccc(NC(=O)CCN4CCCC4)cc3nc3cc(NC(=O)CCN4CCCC4)ccc23)cc1;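 note: spheroids exposed to the agents for seven days before readout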;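 for viability, T/C: percent viability relative to DMSO vehicle control wells taken as 100%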", "values": [{"measurement": "IC50", "setting": "second compound 0.0316 µM", "result": "> 10000", "unit": "nM"}, {"measurement": "IC50", "setting": "second compound 0.1 µM", "result": "> 10000", "unit": "nM"}, {"measurement": "IC50", "setting": "second compound 0.316 µM", "result": "> 10000", "unit": "nM"}, {"measurement": "IC50", "setting": "second compound 1 µM", "result": "> 10000", "unit": "nM"}, {"measurement": "IC50", "setting": "second compound 3.16 µM", "result": "> 10000", "unit": "nM"}, {"measurement": "IC50", "setting": "second compound 10 µM", "result": 1790, "unit": "nM"}, {"measurement": "viability, T/C", "setting": "[1]", "result": 103, "unit": "%"}, {"measurement": "viability, T/C", "setting": "second compound 0.0316 µM, first compound 0.1 µM", "result": 88.4, "unit": "%"}, {"measurement": "viability, T/C", "setting": "[2]", "result": 98.5, "unit": "%"}, {"measurement": "viability, T/C", "setting": "second compound 0.0316 µM, first compound 1 µM", "result": 86.7, "unit": "%"}, {"measurement": "viability, T/C", "setting": "second compound 0.0316 µM, first compound 3.16 µM", "result": 95.9, "unit": "%"}, {"measurement": "viability, T/C", "setting": "second compound 0.0316 µM, first compound 10 µM", "result": 93.5, "unit": "%"}, {"measurement": "viability, T/C", "setting": "[3]", "result": 96.8, "unit": "%"}, {"measurement": "viability, T/C", "setting": "second compound 0.1 µM, first compound 0.1 µM", "result": 84.4, "unit": "%"}, {"measurement": "viability, T/C", "setting": "[4]", "result": 94.5, "unit": "%"}, {"measurement": "viability, T/C", "setting": "second compound 0.1 µM, first compound 1 µM", "result": 89, "unit": "%"}, {"measurement": "viability, T/C", "setting": "second compound 0.1 µM, first compound 3.16 µM", "result": 90.7, "unit": "%"}, {"measurement": "viability, T/C", "setting": "second compound 0.1 µM, first compound 10 µM", "result": 96, "unit": "%"}, {"measurement": "viability, T/C", "setting": "[5]", "result": 98.2, "unit": "%"}, {"measurement": "viability, T/C", "setting": "second compound 0.316 µM, first compound 0.1 µM", "result": 91.2, "unit": "%"}, {"measurement": "viability, T/C", "setting": "[6]", "result": 105, "unit": "%"}, {"measurement": "viability, T/C", "setting": "second compound 0.316 µM, first compound 1 µM", "result": 96.3, "unit": "%"}, {"measurement": "viability, T/C", "setting": "second compound 0.316 µM, first compound 3.16 µM", "result": 95.2, "unit": "%"}, {"measurement": "viability, T/C", "setting": "second compound 0.316 µM, first compound 10 µM", "result": 103, "unit": "%"}, {"measurement": "viability, T/C", "setting": "[7]", "result": 87.9, "unit": "%"}, {"measurement": "viability, T/C", "setting": "second compound 1 µM, first compound 0.1 µM", "result": 89.9, "unit": "%"}, {"measurement": "viability, T/C", "setting": "[8]", "result": 98.8, "unit": "%"}, {"measurement": "viability, T/C", "setting": "second compound 1 µM, first compound 1 µM", "result": 96.8, "unit": "%"}, {"measurement": "viability, T/C", "setting": "second compound 1 µM, first compound 3.16 µM", "result": 95.5, "unit": "%"}, {"measurement": "viability, T/C", "setting": "second compound 1 µM, first compound 10 µM", "result": 102, "unit": "%"}, {"measurement": "viability, T/C", "setting": "[9]", "result": 88.5, "unit": "%"}, {"measurement": "viability, T/C", "setting": "second compound 3.16 µM, first compound 0.1 µM", "result": 91.1, "unit": "%"}, {"measurement": "viability, T/C", "setting": "[10]", "result": 96.8, "unit": "%"}, {"measurement": "viability, T/C", "setting": "second compound 3.16 µM, first compound 1 µM", "result": 99.4, "unit": "%"}, {"measurement": "viability, T/C", "setting": "second compound 3.16 µM, first compound 3.16 µM", "result": 104, "unit": "%"}, {"measurement": "viability, T/C", "setting": "second compound 3.16 µM, first compound 10 µM", "result": 68.7, "unit": "%"}, {"measurement": "viability, T/C", "setting": "[11]", "result": 104, "unit": "%"}, {"measurement": "viability, T/C", "setting": "second compound 10 µM, first compound 0.1 µM", "result": 106, "unit": "%"}, {"measurement": "viability, T/C", "setting": "[12]", "result": 103, "unit": "%"}, {"measurement": "viability, T/C", "setting": "second compound 10 µM, first compound 1 µM", "result": 85, "unit": "%"}, {"measurement": "viability, T/C", "setting": "second compound 10 µM, first compound 3.16 µM", "result": 16.1, "unit": "%"}, {"measurement": "viability, T/C", "setting": "second compound 10 µM, first compound 10 µM", "result": 0.99, "unit": "%"}]}
{"compound": "CCc1c2c(nc3ccc(O)cc13)-c1cc3c(c(=O)n1C2)COC(=O)[C@]3(O)CC", "note": "+ Cc1cnc(CNC(=O)c2c(=O)c3ccc(N4CCCN(C)CC4)nc3n3c2sc2ccccc23)cn1", "values": [{"measurement": "IC50", "setting": "second compound 0.0316 µM", "result": "< 0.999", "unit": "nM"}, {"measurement": "IC50", "setting": "second compound 0.1 µM", "result": "< 0.999", "unit": "nM"}, {"measurement": "IC50", "setting": "second compound 0.316 µM", "result": "< 0.999", "unit": "nM"}, {"measurement": "IC50", "setting": "second compound 1 µM", "result": "< 0.999", "unit": "nM"}, {"measurement": "IC50", "setting": "second compound 3.16 µM", "result": "< 0.999", "unit": "nM"}, {"measurement": "IC50", "setting": "second compound 10 µM", "result": "< 0.999", "unit": "nM"}, {"measurement": "viability, T/C", "setting": "second compound 0.0316 µM, first compound 0.000999 µM", "result": 5.02, "unit": "%"}, {"measurement": "viability, T/C", "setting": "second compound 0.0316 µM, first compound 0.00316 µM", "result": 0.7, "unit": "%"}, {"measurement": "viability, T/C", "setting": "second compound 0.0316 µM, first compound 0.00999 µM", "result": 0.49, "unit": "%"}, {"measurement": "viability, T/C", "setting": "[1]", "result": 0.4, "unit": "%"}, {"measurement": "viability, T/C", "setting": "second compound 0.0316 µM, first compound 0.0999 µM", "result": 0.35, "unit": "%"}, {"measurement": "viability, T/C", "setting": "[2]", "result": 0.36, "unit": "%"}, {"measurement": "viability, T/C", "setting": "second compound 0.1 µM, first compound 0.000999 µM", "result": 2.67, "unit": "%"}, {"measurement": "viability, T/C", "setting": "second compound 0.1 µM, first compound 0.00316 µM", "result": 0.71, "unit": "%"}, {"measurement": "viability, T/C", "setting": "second compound 0.1 µM, first compound 0.00999 µM", "result": 1.06, "unit": "%"}, {"measurement": "viability, T/C", "setting": "[3]", "result": 0.42, "unit": "%"}, {"measurement": "viability, T/C", "setting": "second compound 0.1 µM, first compound 0.0999 µM", "result": 0.35, "unit": "%"}, {"measurement": "viability, T/C", "setting": "[4]", "result": 0.46, "unit": "%"}, {"measurement": "viability, T/C", "setting": "second compound 0.316 µM, first compound 0.000999 µM", "result": 2.26, "unit": "%"}, {"measurement": "viability, T/C", "setting": "second compound 0.316 µM, first compound 0.00316 µM", "result": 0.87, "unit": "%"}, {"measurement": "viability, T/C", "setting": "second compound 0.316 µM, first compound 0.00999 µM", "result": 0.52, "unit": "%"}, {"measurement": "viability, T/C", "setting": "[5]", "result": 0.5, "unit": "%"}, {"measurement": "viability, T/C", "setting": "second compound 0.316 µM, first compound 0.0999 µM", "result": 0.79, "unit": "%"}, {"measurement": "viability, T/C", "setting": "[6]", "result": 0.41, "unit": "%"}, {"measurement": "viability, T/C", "setting": "second compound 1 µM, first compound 0.000999 µM", "result": 1.23, "unit": "%"}, {"measurement": "viability, T/C", "setting": "second compound 1 µM, first compound 0.00316 µM", "result": 0.79, "unit": "%"}, {"measurement": "viability, T/C", "setting": "second compound 1 µM, first compound 0.00999 µM", "result": 0.82, "unit": "%"}, {"measurement": "viability, T/C", "setting": "[7]", "result": 0.08, "unit": "%"}, {"measurement": "viability, T/C", "setting": "second compound 1 µM, first compound 0.0999 µM", "result": 0.63, "unit": "%"}, {"measurement": "viability, T/C", "setting": "[8]", "result": 0.12, "unit": "%"}, {"measurement": "viability, T/C", "setting": "second compound 3.16 µM, first compound 0.000999 µM", "result": 0.43, "unit": "%"}, {"measurement": "viability, T/C", "setting": "second compound 3.16 µM, first compound 0.00316 µM", "result": 0.09, "unit": "%"}, {"measurement": "viability, T/C", "setting": "second compound 3.16 µM, first compound 0.00999 µM", "result": 0.06, "unit": "%"}, {"measurement": "viability, T/C", "setting": "[9]", "result": 0.05, "unit": "%"}, {"measurement": "viability, T/C", "setting": "second compound 3.16 µM, first compound 0.0999 µM", "result": 0.12, "unit": "%"}, {"measurement": "viability, T/C", "setting": "[10]", "result": 0.09, "unit": "%"}, {"measurement": "viability, T/C", "setting": "second compound 10 µM, first compound 0.000999 µM", "result": 0.03, "unit": "%"}, {"measurement": "viability, T/C", "setting": "second compound 10 µM, first compound 0.00316 µM", "result": 0.07, "unit": "%"}, {"measurement": "viability, T/C", "setting": "second compound 10 µM, first compound 0.00999 µM", "result": 0.08, "unit": "%"}, {"measurement": "viability, T/C", "setting": "[11]", "result": 0.07, "unit": "%"}, {"measurement": "viability, T/C", "setting": "second compound 10 µM, first compound 0.0999 µM", "result": 1.27, "unit": "%"}, {"measurement": "viability, T/C", "setting": "[12]", "result": 0.1, "unit": "%"}]}
